From PubChem BioAssay AID330 (DTP/NCI, 2004)
Values joined by “and” are separate entries in the source; they are usually repeats but may differ in a detail not shown here. Equal entries are not always repeated. Toxic doses and inconclusive results are not listed.

Test system: P388 leukemia ip, CD2F1 mice, survival T/C
Assay: NCI In Vivo Anticancer Drug Screen. Data for tumor model P388 Leukemia (intraperitoneal) in CD2F1 (CDF1) mice
Settings: endpoint: median survival time, higher = longer survival
Method in brief: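 Mice carrying the transplanted tumor received test compound or vehicle. Survival was recorded in each group, and the value is the treated-group measurement divided by that of the vehicle-treated control group.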

[1] = dose: 50.0 mg/kg/injection, schedule: Q01DX009 (ip), vehicle: saline
[2] = dose: 100.0 mg/kg/injection, schedule: Q01DX009 (ip), vehicle: saline
[3] = dose: 200.0 mg/kg/injection, schedule: Q01DX009 (ip), vehicle: saline
[4] = dose: 25.0 mg/kg/injection, schedule: Q01DX009 (ip), vehicle: saline with Tween-80
[5] = dose: 50.0 mg/kg/injection, schedule: Q01DX009 (ip), vehicle: saline with Tween-80
[6] = dose: 100.0 mg/kg/injection, schedule: Q01DX009 (ip), vehicle: saline with Tween-80
[7] = dose: 200.0 mg/kg/injection, schedule: Q01DX009 (ip), vehicle: saline with Tween-80
[8] = dose: 12.5 mg/kg/injection, schedule: Q01DX005 (ip), vehicle: Klucel (hydroxypropylcellulose) (HPC)
[9] = dose: 25.0 mg/kg/injection, schedule: Q01DX005 (ip), vehicle: Klucel (hydroxypropylcellulose) (HPC)
[10] = dose: 50.0 mg/kg/injection, schedule: Q01DX005 (ip), vehicle: Klucel (hydroxypropylcellulose) (HPC)
[11] = dose: 100.0 mg/kg/injection, schedule: Q01DX005 (ip), vehicle: Klucel (hydroxypropylcellulose) (HPC)
[12] = dose: 50.0 mg/kg/injection, schedule: Q01DX005 (ip), vehicle: saline with Tween-80
[13] = dose: 100.0 mg/kg/injection, schedule: Q01DX005 (ip), vehicle: saline with Tween-80
[14] = dose: 200.0 mg/kg/injection, schedule: Q01DX005 (ip), vehicle: saline with Tween-80

CCCCN1CS[C@@H]2CCCC[C@H]21
T/C (dose: 21.0 mg/kg/injection, schedule: Q01DX005 (ip), vehicle: Klucel (hydroxypropylcellulose) (HPC)): 104 % of control
T/C (dose: 42.0 mg/kg/injection, schedule: Q01DX005 (ip), vehicle: Klucel (hydroxypropylcellulose) (HPC)): 113 % of control
T/C (dose: 84.0 mg/kg/injection, schedule: Q01DX005 (ip), vehicle: Klucel (hydroxypropylcellulose) (HPC)): 116 % of control

Cc1cc[n+](CCc2c[nH]c3ccccc23)cc1C
T/C (dose: 12.5 mg/kg/injection, schedule: Q01DX005 (ip), vehicle: saline): 100 % of control
T/C (dose: 25.0 mg/kg/injection, schedule: Q01DX005 (ip), vehicle: saline): 97 % of control
T/C (dose: 50.0 mg/kg/injection, schedule: Q01DX005 (ip), vehicle: saline): 105 % of control and 95 % of control

Cc1cccc(=O)[n-]1.Cc1cccc(=O)[n-]1.Cc1cccc(=O)[n-]1.Cc1cccc(=O)[n-]1.[Rh+2].[Rh+2]
T/C (dose: 100.0 mg/kg/injection, schedule: Q04DX002 (ip), vehicle: Klucel (hydroxypropylcellulose) (HPC)): 103 % of control
T/C (dose: 200.0 mg/kg/injection, schedule: Q04DX002 (ip), vehicle: Klucel (hydroxypropylcellulose) (HPC)): 102 % of control
T/C (dose: 400.0 mg/kg/injection, schedule: Q04DX002 (ip), vehicle: Klucel (hydroxypropylcellulose) (HPC)): 100 % of control

CCN1C(=O)c2ccccc2C1=O
T/C [1]: 101 % of control
T/C [2]: 90 % of control
T/C [3]: 110 % of control

O=S(=O)(O)CCNC(=S)C(=S)NCCS(=O)(=O)O
T/C [1]: 100 % of control
T/C [2]: 100 % of control
T/C [3]: 101 % of control

Cn1cnc([N+](=O)[O-])c1Sc1nc(N)nc2nc[nH]c12
T/C [4]: 109 % of control
T/C (dose: 50.0 mg/kg/injection, schedule: Q01DX009 (ip), vehicle: saline sonified): 109 % of control
T/C (dose: 100.0 mg/kg/injection, schedule: Q04DX003 (ip), vehicle: Klucel (hydroxypropylcellulose) (HPC)): 122 % of control

Nc1ncnc2c1ncn2C1OC(COC2C(CO)OC(OC(C(=O)O)C(O)C(OP(=O)(O)O)C(O)C(=O)O)C(O)C2O)C(O)C1O (stereo not drawn)
T/C (dose: 0.25 mg/kg/injection, schedule: Q01DX009 (ip), vehicle: saline): 96 % of control
T/C (dose: 0.5 mg/kg/injection, schedule: Q01DX009 (ip), vehicle: saline): 105 % of control
T/C (dose: 1.0 mg/kg/injection, schedule: Q01DX009 (ip), vehicle: saline): 96 % of control

C1OC2OCC1O2
T/C [5]: 87 % of control
T/C [6]: 93 % of control
T/C [7]: 105 % of control

C=C(C1=CC(=O)C(C)=C(OC(=O)C2(C)OC2C)C1=O)C(CC=C(C)C)OC(=O)/C(C)=C/C (stereo not drawn)
T/C (dose: 1.56 mg/kg/injection, schedule: Q01DX005 (ip), vehicle: Klucel (hydroxypropylcellulose) (HPC)): 97 % of control
T/C (dose: 3.12 mg/kg/injection, schedule: Q01DX005 (ip), vehicle: Klucel (hydroxypropylcellulose) (HPC)): 97 % of control
T/C (dose: 6.25 mg/kg/injection, schedule: Q01DX005 (ip), vehicle: Klucel (hydroxypropylcellulose) (HPC)): 99 % of control
T/C [8]: 99 % of control
T/C [9]: 99 % of control

O=[N+]([O-])c1ccc(CSC(=S)Nc2ccc(Cl)c(Cl)c2)cc1
T/C [4]: 106 % of control
T/C (dose: 25.0 mg/kg/injection, schedule: Q01DX009 (ip), vehicle: saline): 109 % of control
T/C [5]: 114 % of control
T/C [1]: 107 % of control
T/C (dose: 50.0 mg/kg/injection, schedule: Q01DX009 (ip), vehicle: suspension in saline): 103 % of control
T/C [6]: 115 % of control
T/C [2]: 109 % of control
T/C (dose: 100.0 mg/kg/injection, schedule: Q01DX009 (ip), vehicle: suspension in saline): 113 % of control
T/C [7]: 97 % of control
T/C [3]: 116 % of control
T/C (dose: 200.0 mg/kg/injection, schedule: Q01DX009 (ip), vehicle: suspension in saline): 115 % of control

Cc1ccc(NC(=O)N2CC(C)OC(C)C2)cc1[N+](=O)[O-] (stereo not drawn)
T/C [10]: 103 % of control
T/C [11]: 99 % of control
T/C (dose: 200.0 mg/kg/injection, schedule: Q01DX005 (ip), vehicle: Klucel (hydroxypropylcellulose) (HPC)): 94 % of control

CC1NC(=O)OC12CCCCC2 (stereo not drawn)
T/C [4]: 93 % of control
T/C [5]: 100 % of control

[Cl][Rh][Cl].[NH-]c1nc2c(ccc3ccccc32)s1.[NH-]c1nc2c(ccc3ccccc32)s1.[NH-]c1nc2c(ccc3ccccc32)s1.[NH-]c1nc2c(ccc3ccccc32)s1
T/C (dose: 100.0 mg/kg/injection, schedule: Q04DX003 (ip), vehicle: saline): 108 % of control
T/C (dose: 200.0 mg/kg/injection, schedule: Q04DX003 (ip), vehicle: saline): 109 % of control
T/C (dose: 400.0 mg/kg/injection, schedule: Q04DX003 (ip), vehicle: saline): 105 % of control

Nc1nc(N)nc(Nc2ccc(-c3cc4ccc(-c5ncc[nH]5)cc4[nH]3)cc2)n1
T/C (dose: 30.0 mg/kg/injection, schedule: Q01DX005 (ip), vehicle: Klucel (hydroxypropylcellulose) (HPC)): 153 % of control
T/C (dose: 120.0 mg/kg/injection, schedule: Q01DX005 (ip), vehicle: Klucel (hydroxypropylcellulose) (HPC)): 164 % of control and 171 % of control
T/C (dose: 240.0 mg/kg/injection, schedule: Q01DX005 (ip), vehicle: Klucel (hydroxypropylcellulose) (HPC)): 183 % of control and 188 % of control

CCNc1nc(NC(C)C)nc(-c2ccncc2)n1
T/C [8]: 108 % of control
T/C [9]: 96 % of control
T/C [10]: 101 % of control
T/C [11]: 108 % of control

CCOC(=O)C1(Br)CCCCC1Br (stereo not drawn)
T/C [4]: 108 % of control and 111 % of control
T/C [5]: 115 % of control and 118 % of control
T/C [6]: 113 % of control and 118 % of control and 119 % of control

NC(N)=NS(=O)(=O)c1ccc(N=c2c3ccccc3n(Cc3ccccc3)c3ccccc23)cc1
T/C [12]: 97 % of control
T/C [13]: 98 % of control

Cc1cnc(Sc2c([N+](=O)[O-])ncn2C)nc1
T/C [1]: 109 % of control
T/C [2]: 104 % of control
T/C [3]: 109 % of control

CCCC(=O)c1cc(-c2cc(C(=O)CCC)nc(N)n2)nc(N)n1
T/C (dose: 60.0 mg/kg/injection, schedule: Q01DX005 (ip), vehicle: saline with Tween-80): 99 % of control
T/C (dose: 120.0 mg/kg/injection, schedule: Q01DX005 (ip), vehicle: saline with Tween-80): 107 % of control

C=C1C[C@H](C2OC3OC(C)(C)OC3C2OCc2ccccc2)OC1=O (stereo partly drawn)
T/C [12]: 97 % of control
T/C [13]: 98 % of control
T/C [14]: 100 % of control

COc1cc2cc[n+](C)c(C)c2cc1OC
T/C (dose: 12.5 mg/kg/injection, schedule: Q01DX009 (ip), vehicle: distilled water + Tween-80): 111 % of control
T/C (dose: 25.0 mg/kg/injection, schedule: Q01DX009 (ip), vehicle: distilled water + Tween-80): 111 % of control and 120 % of control
T/C (dose: 50.0 mg/kg/injection, schedule: Q01DX009 (ip), vehicle: distilled water + Tween-80): 121 % of control and 124 % of control
T/C (dose: 100.0 mg/kg/injection, schedule: Q01DX009 (ip), vehicle: distilled water + Tween-80): 100 % of control and 118 % of control

COc1cc2c(cc1-c1coc3cc4occc4cc3c1=O)OCO2
T/C (dose: 8.75 mg/kg/injection, schedule: Q01DX005 (ip), vehicle: saline with Tween-80): 87 % of control
T/C (dose: 35.0 mg/kg/injection, schedule: Q01DX005 (ip), vehicle: saline with Tween-80): 87 % of control
T/C (dose: 70.0 mg/kg/injection, schedule: Q01DX005 (ip), vehicle: saline with Tween-80): 89 % of control
T/C (dose: 140.0 mg/kg/injection, schedule: Q01DX005 (ip), vehicle: saline with Tween-80): 99 % of control

FC(F)(F)C[P+](c1ccccc1)(c1ccccc1)c1ccccc1
T/C (dose: 12.5 mg/kg/injection, schedule: Q01DX001 (ip), vehicle: saline): 100 % of control and 109 % of control
T/C (dose: 25.0 mg/kg/injection, schedule: Q01DX001 (ip), vehicle: saline): 108 % of control and 117 % of control
T/C (dose: 50.0 mg/kg/injection, schedule: Q01DX001 (ip), vehicle: saline): 104 % of control

c1cc[c]([Pb]([S]c2nc3ccccc3[nH]2)([c]2ccccc2)[c]2ccccc2)cc1
T/C (dose: 0.37 mg/kg/injection, schedule: Q01DX009 (ip), vehicle: Klucel (hydroxypropylcellulose) (HPC)): 102 % of control
T/C (dose: 0.75 mg/kg/injection, schedule: Q01DX009 (ip), vehicle: Klucel (hydroxypropylcellulose) (HPC)): 121 % of control
T/C (dose: 1.5 mg/kg/injection, schedule: Q01DX009 (ip), vehicle: Klucel (hydroxypropylcellulose) (HPC)): 102 % of control
T/C (dose: 3.0 mg/kg/injection, schedule: Q01DX009 (ip), vehicle: Klucel (hydroxypropylcellulose) (HPC)): 100 % of control

Nc1nc(N)c2[nH]c(N=Nc3ccc(N(CCO)CCO)cc3)nc2n1
T/C [12]: 106 % of control
T/C [13]: 106 % of control
T/C [14]: 108 % of control

CN(C)C1C(=O)C(C(N)=O)=C(O)C2(O)C(=O)C3=C(O)c4c(O)cccc4C(C)(O)C3CC12.[Cl][Sb]([Cl])[Cl] (stereo not drawn)
T/C [12]: 119 % of control
T/C [13]: 108 % of control
